The subject of data set [1] is HepG2 cells. Nature of the data set: Cytotoxicity tests (trypan blue, MTT) and apoptosis test (Cell Death ELISA, DNA fragmentation) on HepG2 cells. As for the experimental part:
(§1) The effects of toxic compounds on RNA splicing regulation defects were tested as follows. HepG2 hepatocyte cells were treated with different doses of three toxic compounds (ethanol, camptothecin, PMA (phorbol 12-myristate 13-acetate)). Two cytotoxicity tests (trypan blue, MTT) were performed at different time points: 4 h and 18 h for ethanol; 4 h and 18 h for camptothecin; 18 h and 40 h for PMA.
(§2) Trypan blue is a dye that can be incorporated by […] cells. […] The experimental points are determined in triplicate.
(§3) The MTT test is a colorimetric test measuring the capacity of living cells to convert soluble tetrazolium salts (MTT) into an insoluble formazan precipitate. These dark blue formazan crystals can be dissolved and their concentration determined by measuring absorbance at 550 nm. Thus, after overnight seeding of 24-well dishes with 150,000 cells, followed by treatment of the cells with the toxic compounds, 50 μl of MTT (Sigma) are added (at a concentration of 5 mg/ml in PBS). The formazan crystal formation reaction is carried out for 5 h in a CO2 incubator (37° C., 5% CO2, 95% humidity). After addition of 500 μl of solubilization solution (0.1 N HCl in isopropanol-Triton X-100 (10%)), the crystals are dissolved with stirring and their absorbance is measured at 550 to 660 nm. Determinations are done in triplicate with suitable controls (viability, cell death, blanks).
(§4) A test of apoptosis or programmed cell death was also performed by measuring DNA fragmentation with an anti-histone antibody and ELISA. The Cell Death ELISA Plus from Roche was used.
For orientation: An ELISA detects its analyte on a solid surface through an enzyme-linked reagent.

For data set [2], the system named is FASR isoforms. Nature of the data set: RT-PCR of FASR isoforms in treated HepG2 cells. Type of data set: cell-based, human. The note with it: 4 h, RT-PCR (FIG. 19). Here is the method: (§5) HepG2 cells were thus treated with these three concentrations of these three compounds for 4 h in the case of ethanol and camptothecin and for 18 h in the case of PMA. […] These initial strands served as templates for PCR amplification reactions (94° C. 1 min, 55° C. 1 min, 72° C. 1 min, 30 cycles) by means of the following oligonucleotide primers: [table] These primers correspond to the regions common to certain FASR isoforms and should amplify a 478 base pair fragment for wild type form FasR, 452 base pairs for isoform Δ8 and 415 for isoform ΔTM.

The test system of data set [3] is bcl-X isoforms. Nature of the data set: RT-PCR of BCL-X isoforms in treated HepG2 cells. Type of data set: cell-based, human. As to conditions: 4 h, RT-PCR (FIG. 19). Here is the method: as §5, with “the different described” for “certain FASR”, “isoforms of bcl-X (bcl-XI, bcl-Xs, BCL-Xβ) (Boise et al., (1993), Cell 74: 597-608; U72398 (Genbank))” for “isoforms”, “single 204” for “478”, “these three isoforms.” for “wild type form FasR, 452 base pairs for isoform Δ8 and 415 for isoform ΔTM.”

The subject of data set [4] is MACH-α (Caspase-8) isoforms. Nature of the data set: RT-PCR of MACH-α isoforms in treated HepG2 cells. It is filed as cell-based, human. The note with it: camptothecin 1 μg/ml, 4 h, RT-PCR (FIG. 19). Here is the method:
HepG2 cells were thus treated with these three concentrations of these three compounds for 4 h in the case of ethanol and camptothecin and for 18 h in the case of PMA. Messenger RNAs were purified on Dynal-Oligo-(dT) beads starting from total RNAs purified with the Rneasy kit (Quiagen). cDNA was synthesized from these messenger RNAs using Superscript reverse transcriptase (Life Technologies) and random hexamers as primers
These initial strands served as templates for PCR amplification reactions (94° C. 1 min, 55° C. 1 min, 72° C. 1 min, 30 cycles) by means of the following oligonucleotide primers: […]
These primers correspond to the regions common to the different described isoforms of MACH-α (1, 2 and 3, respectively amplifying 595, 550 and 343 base pairs). MACH-α (Caspase-8) is a protease involved in programmed cell death (Boldin et al., (1996), Cell, 85: 803-815).

Data set [5] is described as follows: Cytotoxicity tests (trypan blue, MTT) and apoptosis test (Cell Death ELISA, DNA fragmentation) on HepG2 cells. The note with it: human. Here is the method: as §1, §2, §3, §4
In data set [6] the test system is HepG2 cells. The note with it: 0.1 M ethanol for 18 hours (FIG. 9).
Description: A more complex situation was examined. […] RNAs were extracted from cells that were or were not subjected to treatment. The aforementioned DATAS variant (preparation of biotinylated ss cDNA, cross hybridizations in liquid phase, application of a magnetic field to separate the species, RNase H digestion) was effected with untreated cells in the reference condition (or condition A) and with treated cells in the test condition (or condition B) (FIG. 9). As the extracted RNAs were not radiolabeled, the RNAs generated by RNase H digestion were visualized by carrying out an exchange reaction to replace the RNA 5′ phosphate with a labeled phosphate, by means of T4 polynucleotide kinase and gamma-P^32ATP. These labeled products were then loaded on an acrylamide/urea gel and analyzed by exposure using an Instant Imager (Packard Instruments).

Molecules are shown by their SMILES. A value given as a limit tells only on which side of the number the result lay.

The term IC50 denotes the concentration at which inhibition is half-maximal. A higher IC50 goes with a need for much substance.

`CCCCCCCCCCCCCC(=O)O[C@@H]1[C@@H](C)[C@@]2(O)[C@@H](C=C(CO)C[C@]3(O)C(=O)C(C)=C[C@@H]23)[C@@H]2C(C)(C)[C@]12OC(C)=O` [PMA, phorbol 12-myristate 13-acetate]: the “IC50 in cytotoxicity and apoptosis tests” value in data set [1] (HepG2 cells, trypan blue, MTT, Cell Death ELISA, 18 h and 40 h, stated concentration well below measured IC50) was greater than 0.05 µg/mL.
Take `CC[C@@]1(O)C(=O)OCc2c1cc1n(c2=O)Cc2cc3ccccc3nc2-1` [camptothecin]: the “fas receptor isoform pattern” value in data set [2] (camptothecin 1 μg/ml) was “induces a decrease in the wild type form of the fas receptor, replaced by expression of a shorter isoform which may correspond to Fas ΔTM”. Further, the bcl-X isoform pattern entry in data set [3] (camptothecin 1 μg/ml) is recorded as “induces the appearance of a new bcl-X isoform”. In data set [4], the “expression of isoform MACH-α1” value is on record as “decrease” and the “expression of isoform MACH-α3” value is on record as “increase”. Further, the IC50 in data set [5] (HepG2 hepatocyte cells) is greater than 1 µg/mL.
`CCO` [ethanol]: in data set [2] (ethanol 0.1 M), the “fas receptor isoform pattern” value was “induces an increase in the long wild type form of the fas receptor at the expense of the shorter isoform”. Also, the bcl-X isoform pattern result in data set [3] (ethanol 0.1 M) is “induces the disappearance of bcl-x which is replaced by a shorter isoform”. Besides, in data set [5], the IC50 is greater than 100 mM. Also, the “cytotoxicity and DNA degradation” value in data set [1] was “signs of cytotoxicity and DNA degradation via internucleosomal fragmentation”. Moreover, the “RNA splicing signatures (A/B and B/A signals versus A/A)” value in data set [6] is on record as “can induce a reprogramming of RNA splicing events”.

Values taken from patent US8003375B2, “Qualitative differential screening” (ExonHit Therapeutics S.A., priority 1998, dated 2011).
